Reference: patent publication US5789416A, “N^6 mono heterocyclic substituted adenosine derivatives” (CV Therapeutics, priority 1996, dated 1998)
Read-outs that look alike come from different tables or passages of the source.

Columns and labels:
Type in all cases: cell-based
adenosine A1 receptor [1] = target: T1, adenosine A1 receptor (Mesocricetus auratus, UniProt A0A1U8BVR4); assay: A1 receptor mediated inhibition of isoproterenol stimulated cAMP accumulation in DDT cells; settings: DDT cells; inhibition of isoproterenol stimulated cAMP accumulation (A1 agonism)
T1 construct: endogenous in cells
T1 sequence (A0A1U8BVR4 1-326): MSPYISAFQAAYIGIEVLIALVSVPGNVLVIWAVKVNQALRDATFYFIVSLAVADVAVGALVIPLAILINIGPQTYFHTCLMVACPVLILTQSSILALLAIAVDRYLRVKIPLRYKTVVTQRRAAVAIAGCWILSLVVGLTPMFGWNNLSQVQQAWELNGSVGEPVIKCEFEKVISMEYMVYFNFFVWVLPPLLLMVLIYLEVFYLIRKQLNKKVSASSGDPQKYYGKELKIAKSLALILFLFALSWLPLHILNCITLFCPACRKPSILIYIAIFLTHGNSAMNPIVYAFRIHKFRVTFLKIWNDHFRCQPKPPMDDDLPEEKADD
Description: (§1) The first was the A1 receptor mediated inhibition of isoproterenol stimulated cAMP accumulation in DDT cells. The EC50 of each derivative is shown in Table I. Also shown in Table I is the ability of each derivative to stimulate cAMP production in PC12 cells, a function of agonist stimulation of adenosine A2 receptors. The ratio of the relative potency of each compound in stimulating either an A1 receptor or an A2 receptor effect is termed the selectivity of each compound for the A1 receptor.

adenosine A1 receptor [2] = assay: as above; settings: for A1 /A2: ratio of EC50 in DDT cells (A1) to EC50 in PC12 cells (A2)
Description: as §1

adenosine A2 receptors = target: T2, adenosine A2 receptors (Rattus norvegicus, UniProt P30543); assay: stimulation of cAMP production in PC12 cells (adenosine A2 receptor agonist function); settings: stimulation of cAMP production (A2 agonism)
T2 construct: stimulate cAMP production in PC12 cells, a function of agonist stimulation of adenosine A2 receptors; endogenous in cells; host or cells: PC12 cells
Procedure: Compounds of this invention prepared according to the method of Example 1 were tested in two functional models specific for adenosine A1 receptor agonist function. The first was the A1 receptor mediated inhibition of isoproterenol stimulated cAMP accumulation in DDT cells. The EC50 of each derivative is shown in Table I. Also shown in Table I is the ability of each derivative to stimulate cAMP production in PC12 cells, a function of agonist stimulation of adenosine A2 receptors. The ratio of the relative potency of each compound in stimulating either an A1 receptor or an A2 receptor effect is termed the selectivity of each compound for the A1 receptor. […] The use of measuring cAMP metabolism as an assay for adenosine A1 receptor function has been previously described (Scammells, P., Baker, S., Belardinelli, L., and Olsson, R., 1994, Substituted 1,3-dipropylxanthines as irreversible antagonists of A1 adenosine receptors. J. Med. Chem 37: […], 1994).

[3] = ratio of EC50 in PC12 cells (A2) to EC50 in DDT cells (A1), A1 selectivity

T2 sequence (P30543 whole entry): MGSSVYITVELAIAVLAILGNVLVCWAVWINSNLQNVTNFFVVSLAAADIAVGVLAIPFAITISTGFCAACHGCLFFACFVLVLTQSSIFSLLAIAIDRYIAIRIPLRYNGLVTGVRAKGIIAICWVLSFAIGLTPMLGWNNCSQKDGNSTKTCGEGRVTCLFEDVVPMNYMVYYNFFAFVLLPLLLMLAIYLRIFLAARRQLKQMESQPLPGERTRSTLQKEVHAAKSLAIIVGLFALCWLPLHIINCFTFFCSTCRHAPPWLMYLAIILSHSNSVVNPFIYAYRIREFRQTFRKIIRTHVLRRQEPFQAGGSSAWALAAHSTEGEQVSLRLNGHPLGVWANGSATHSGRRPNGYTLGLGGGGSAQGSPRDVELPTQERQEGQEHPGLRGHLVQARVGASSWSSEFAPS

| SMILES | EC50 (adenosine A1 receptor [1]) [nM] | A1 /A2 (adenosine A1 receptor [2]) | A2 /A1 (adenosine A1 receptor [2]; [3]) | EC50 (adenosine A2 receptors) [nM] | A2 /A1 (adenosine A1 receptor [2]) |
| --- | --- | --- | --- | --- | --- |
| OC[C@H]1O[C@@H](n2cnc3c(N[C@@H]4CCOC4)ncnc32)[C@H](O)[C@@H]1O [III] | 1.08 | 0.0024 | 414 | 448 | – |
| OC[C@H]1O[C@@H](n2cnc3c(N[C@H]4CCOC4)ncnc32)[C@H](O)[C@@H]1O [V, 6-(3-(S)-aminotetrahydrofuranyl)purine Riboside] | 3.4 | 0.00044 | 2258 | 7680 | – |
| OC[C@H]1O[C@@H](n2cnc3c(NC4CCOCC4)ncnc32)[C@H](O)[C@@H]1O [I, 6-(4-aminopyran)-purine Riboside] | 12 | 0.012 | – | 970 | 80.0 |
| OC[C@H]1O[C@@H](n2cnc3c(NC4CCOC4)ncnc32)[C@H](O)[C@@H]1O (some centres unmarked) [II, 6-(3-aminotetrahydrofuranyl)purine Riboside] | 13 | 0.0093 | 107.6 | 1400 | – |
| O=C1NCCCC[C@@H]1Nc1ncnc2c1ncn2[C@@H]1O[C@H](CO)[C@@H](O)[C@H]1O [IV] | 161 | 0.889 | 1.12 | 181 | – |
